Read-outs that look alike come from different tables or passages of the source.
Tests used:
primary rat hepatocytes = settings: for decrease of formation compared to normal rat hepatocytes / remaining percentage: 6 h; for decrease of formation compared to normal rat hepatocytes: linezolid 1 µM; for substrate stability in control incubation: absence of hepatocytes; for substrate stability in control incubation / remaining percentage: 1 µM; for remaining percentage: freshly isolated normal rat hepatocytes
Description: Primary rat hepatocytes were isolated from normal, CCl4-induced, and 5/6 Nx rats according to the previously described two-step collagenase method ([36]). Rats were anesthetized with urethane (1 g/kg), their abdomens were opened, and their portal veins were cannulated with a needle. The liver was perfused with HBSS solution (without calcium and magnesium ions) containing 5 mM EGTA at a rate of 50–60 mL/min using a peristaltic pump until the blood in the liver was removed. HBSS solution containing 7.5 mg/50 mL collagenase was perfused for 20 min until the liver was completely softened and the surface collapsed. The liver was gently removed and placed in a precooled HBSS solution containing 10% FBS. Hepatocytes were eluted and centrifuged at 500 × g for 5 min, and the supernatant was removed to obtain primary rat hepatocytes. Isolated primary rat hepatocytes were washed three times and suspended in DMEM containing 10% FBS, 100 µg/mL streptomycin, 100 U/ml penicillin, and 10 µg/mL insulin at pH 7.65.
Freshly isolated rat hepatocytes at a density of 1.0 × 10^6 cells/well were placed in plates pre-coated with collagen and incubated for 18–24 h in a humidified incubator at 37°C and 5% CO2. […] Control incubations were performed in the absence of hepatocytes to test the substrate stability. Three replicate samples (1 mL each) were collected after 1, 2, 4, and 6 h of incubation. Then, 800 µL of methanol was immediately added, and the samples were transferred to a freezer (−20°C) to terminate metabolism. Hepatocytes were quickly washed three times with ice-cold HBSS and then lysed by the addition of 300 µL of purified water.
An AB Sciex 4000 Mass Spectrometer (AB Sciex, Framingham, MA, USA) and Shimadzu LC 20 series (Shimadzu, Kyoto, Japan) were used for HPLC-MS/MS. […] The Phenomenex Synergi Hydro-RP column (30 mm × 2 mm, 4 µm, Phenomenex Inc., Torrance, CA, USA) was used for chromatographic separation. The mobile phase consisted of 0.1% (vol/vol) formic acid in water (A) and 0.1% (vol/vol) formic acid in acetonitrile (B). The gradient conditions were as follows: 0–1.4 min, 15%–80% B; 1.4–1.8 min, 80% B; 1.8–1.81 min, return to 15% B; 1.81–2.1 min, equilibrium. The flow rate was 450 µL/min. Data acquisition and analysis were performed using the Analyst software (version 1.4.1, AB Sciex).
(§1) Atotal is the total cumulative amount excreted in urine over 24 h. D is the administered dose. The scale factor is 4,680 (10^6 cells/kg). All data are expressed as mean ± standard deviation (SD). Statistical analysis was performed using Student’s two-tailed unpaired t-test or nonparametric Mann-Whitney U test with SPSS Statistics 19.0 (SPSS Inc., Chicago, IL, USA). Statistical significance was set at P < 0.05.

[1] = cited from earlier work
in vivo = settings: rat, in vivo; for half-life: t1/2
From the text: The control group rats were intraperitoneally injected with equal volumes of soybean oil. […] The upper and lower poles of the left kidney were removed under urethane anesthesia (1 g/kg; administered by i.p. injection). One week later, the right kidney was completely excised. Rats in the control group underwent a sham operation ([35]). Serum creatinine (CREA), blood urea nitrogen (BUN), aspartate aminotransferase (AST), alanine aminotransferase (ALT), alkaline phosphatase (ALP), lactate dehydrogenase (LDH), and total bilirubin (TBIL) levels were measured using commercial kits (Shanghai Enzyme-linked Biotechnology Co., Ltd., Shanghai, China) according to the protocols described by the manufacturer before pharmacokinetic experiments.
The rats were first divided into two groups: i.v. or i.g. administration groups. These two groups were further divided into the following four subgroups (n = 5): soybean oil-treated control rats, CCl4-induced rats, sham-operated control rats, and 5/6 Nx rats. […] Blood samples (200 µL) were collected from the retro-orbital venous plexus into heparinized tubes at 0 (pre-dose), 0.25, 0.5, 0.75, 1, 2, 3, 4, 6, 8, 12, and 24 h after i.g. administration, and at 0 (pre-dose), 0.083, 0.25, 0.5, 0.75, 1, 2, 3, 4, 6, 8, 12, and 24 h after i.v. administration. Plasma samples were separated by centrifugation at 6,000 × g for 5 min at 4°C and stored at −80°C until further analysis using HPLC.
Chromatographic separation was performed using the SinoPak BEH T-C18 column (4.6 mm × 150 mm, 5 µm, Hi-tech Zone, China) at 35°C. A photodiode array detector was set at a wavelength of 254 nm. The mobile phase consisted of 0.1% (vol/vol) formic acid in water (A) and acetonitrile (B). The gradient conditions were as follows: 0–4.0 min, 14%–86% B; 4.0–5.0 min, […]; 5.0–5.7 min, return to 14% B; 5.7–8.0 min, equilibrium. The flow rate was 1.0 mL/min.
Plasma and tissue homogenate samples (100 µL) were mixed with 10 µL of IS (50.0 mg/L) and 200 µL of acetonitrile, followed by vortex-mixing for 3 min. The mixture was centrifuged at 15,000 × g for 15 min at 4°C. Then, 5 µL of the supernatant was analyzed. The urine samples were diluted and directly injected for measurement.
The area under the plasma concentration-time curve from 0 to infinity (AUC0-∞), time to maximum concentration (tmax), Cmax, t1/2, CL, and Vd were calculated by non-compartmental model analysis using the Phoenix 8.1.0 WinNonlin software (Pharsight Corp, Princeton, NJ, USA). The renal clearance (CLr), in vitro hepatic clearance (CLint, in vitro), and bioavailability (F) were calculated using the following equations:
F (%) = Div×AUC0−∞, ig/Dig×AUC0−∞, iv
as §1

[2] = Tissue distribution after i.g. or i.v. linezolid in control, CCl4-induced and 5/6 Nx rats; format: in vivo, rat; settings: after i.g. or i.v. linezolid; LLOQ 0.25 mg/L
From the text: These two groups were further divided into the following three subgroups (n = 4): control rats, CCl4-induced rats, and 5/6 Nx rats. […] The rats were euthanized immediately after blood sampling. The brain, heart, lungs, liver, kidneys, and small intestine were collected. The collected tissues were washed and homogenized in normal saline (three-fold volume of each sample weight) using a multi-sample tissue grinder (Tissuelyser-48L; Shanghai Jingxin Industrial Development Co. Ltd., Shanghai, China). After centrifugation of the homogenate samples at 12,000 × g for 10 min at 4°C, the supernatants were stored at −80°C.
The flow rate was 1.0 mL/min.
Then, 5 µL of the supernatant was analyzed.

megakaryocytic cells = settings: cited from earlier work
[3] = Serum biochemical parameters of CCl4-induced rats; format: in vivo, rat

In the case of `CC(=O)NC[C@H]1CN(c2ccc(N(CCO)CC(=O)O)c(F)c2)C(=O)O1` [PNU-142586], the “decrease of formation compared to normal rat hepatocytes” value (primary rat hepatocytes; 5/6 Nx rat hepatocytes) is given as 28.9%, the “decrease of formation compared to normal rat hepatocytes” value (primary rat hepatocytes; hepatocytes from CCl4-induced rats) is given as 95.6% and the “accumulation in patients with renal failure” value [1] is given as “accumulated”. The “share of dosed linezolid in the urine” value ([1]; humans) was “more than 30%”, the “decrease of CLr in comparison to sham-operated control rats” value (in vivo; Sprague-Dawley) was 33.3% and the “share of the total plasma concentrations” value (in vivo; Sprague-Dawley) was 5.6–8.5%. For the same compound, the “AUC0-∞ relative to sham-operated control rats” value (in vivo; Sprague-Dawley, iv) was 2.82 fold, the “decrease of AUC0-∞ compared to soybean oil-treated control rats” value (in vivo; Sprague-Dawley, iv) was 13.6% and the “decrease of CLr in comparison to sham-operated control rats” value (in vivo; Sprague-Dawley, iv) was 33.3%. For the same compound, the “t1/2 relative to control rats” value (in vivo; Sprague-Dawley, iv) was 1.41 fold, the “t1/2 relative to sham-operated control rats” value (in vivo; Sprague-Dawley, iv) was 1.53 fold and the Cmax (in vivo; Sprague-Dawley, iv, 25 mg/kg) was 1690 ± 230 ng/mL. For the same compound, the half-life (in vivo; Sprague-Dawley, iv, 25 mg/kg) was 2.11 ± 0.42 h, the “AUC0-∞ relative to sham-operated control rats” value (in vivo; Sprague-Dawley, po) was 1.88 fold and the “decrease of AUC0-∞ compared to soybean oil-treated control rats” value (in vivo; Sprague-Dawley, po) was 10.4%. For the same compound, the “t1/2 relative to control rats” value (in vivo; Sprague-Dawley, po) was 1.32 fold, the “t1/2 relative to sham-operated control rats” value (in vivo; Sprague-Dawley, po) was 1.15 fold and the Cmax (in vivo; Sprague-Dawley, po, 63 mg/kg) was 1860 ± 210 ng/mL. For the same compound, the half-life (in vivo; Sprague-Dawley, po, 63 mg/kg) was 4.31 ± 0.52 h, the Tmax (in vivo; Sprague-Dawley, po, 63 mg/kg, tmax) was 2.8 ± 0.45 h and the “cumulative urinary excretion rate” value (in vivo) was 3.5%. The “detection in brain, heart, lung, liver, kidney, or small intestine tissues” value [2] was “No PNU-142586 was detected” and the “cytotoxic effects on platelet precursor cell lines” value (megakaryocytic cells) was “cytotoxic effects”.
For `ClC(Cl)(Cl)Cl` [CCl4, Carbon tetrachloride], the “serum ALT relative to soybean oil-treated control rats” value [3] was 6.92 fold, the “serum AST relative to soybean oil-treated control rats” value [3] was 10.7 fold and the “serum LDH relative to soybean oil-treated control rats” value [3] was 1.86 fold. The “serum TBIL relative to soybean oil-treated control rats” value [3] was 8.40 fold, the ALP ([3]; 2.5 mL/kg i.p., 24 h, serum) was 257.1 ± 94.3 U/L and the ALT ([3]; 2.5 mL/kg i.p., 24 h, serum) was 418.8 ± 129.4 U/L. It also gave an AST ([3]; 2.5 mL/kg i.p., 24 h, serum) of 2399.5 ± 203.2 U/L, a CREA ([3]; 2.5 mL/kg i.p., 24 h, serum) of 17.1 ± 7.3 µmol/L and an LDH ([3]; 2.5 mL/kg i.p., 24 h, serum) of 2477.6 ± 220.8 U/L. The TBTL ([3]; 2.5 mL/kg i.p., 24 h, serum) was 4.2 ± 2.0 µmol/L.
For `C[C@]12CC[C@H]3[C@@H](CCC4=CC(=O)CC[C@@]43C)[C@@H]1CC[C@@H]2O` [testosterone], the “substrate stability in control incubation” value (primary rat hepatocytes) was “No reductions” and the remaining percentage (primary rat hepatocytes) was “less than 2%”.
In the case of `O=c1ccc2ccc(O)cc2o1` [7-hydroxycoumarin], the “substrate stability in control incubation” value (primary rat hepatocytes) is reported as “No reductions” and the remaining percentage (primary rat hepatocytes) is reported as less than 5%.
